Assays:
[1] = target: T1, hSiglec-1 (Homo sapiens, UniProt Q9BZZ2); test: direct ESI native mass spectrometry titration; format: binding
T1 construct: gene SIGLEC1; monomeric Siglec-1 fragment from CHO Lec1 cells

[2] = target: T2, mSiglec-1 (Mus musculus, UniProt Q62230); test: direct ESI native mass spectrometry titration; format: binding
T2 construct: gene Siglec1; monomeric Siglec-1 fragment from CHO Lec1 cells

[3] = target: T2, mSiglec-1; test: direct ESI native mass spectrometry titration (no binding in liposome bead assay or ELISA)

T2 sequence (Q62230 20-136 limits assumed): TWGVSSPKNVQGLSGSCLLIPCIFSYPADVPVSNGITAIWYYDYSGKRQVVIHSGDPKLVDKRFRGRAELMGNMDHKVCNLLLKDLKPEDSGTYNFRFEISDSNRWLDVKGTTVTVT
T1 sequence (Q9BZZ2 20-136 limits assumed): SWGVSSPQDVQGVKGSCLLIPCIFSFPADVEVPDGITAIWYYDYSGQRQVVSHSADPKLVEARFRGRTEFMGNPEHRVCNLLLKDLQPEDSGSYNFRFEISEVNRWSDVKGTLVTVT

Kd [1] [µM]	Kd [2] [µM]	Kd [3] [µM]	Substance
890	1200		GM1b oligosaccharide
1500		2000	GM1a oligosaccharide

Reference: publication PMC11294694, “Dissecting the abilities of murine Siglecs to interact with gangliosides [drawing 1]” (The Journal of Biological Chemistry, 2024)
